Assay [1] has as its system vancomycin resistant E. faecalis (VRE). The following applies: absence of polysorbate-80; ref. 2 (Van), ref. 5 (Rist, CE), ref. 9 (Ori), supplementary references; cited from earlier work.
For assay [2], the system named is vancomycin-resistant receptor (VRR). In words: Cantilever surface stress assay, antibiotic binding to surface-bound VRR. The settings on record: for mechanical response (in words): 3 μM drug against VRR; for compressive surface stress: 10 μM antibiotic against VRR; for Kd: fit of equation (2); for maximum stress data, Mean: 4 chips, one-way ANOVA table S4. The text has this:
(§1) To probe different pathways of signal-transduction central to the efficacy of recognition mechanisms and therapeutic agents, we used cantilever force-based technology. Because of its nanometre strain sensitivity, this technology can directly measure the smallest changes in mechanical strain caused by specific antibiotic binding. The principles of force transduction and measurements are well established[18][19][20] and many studies focused on cantilever sensors have been published. Unlike conventional methods such as 1H–NMR spectroscopy, enzyme-linked immunosorbent assays (ELISA)[29] or surface plasmon resonance (SPR)[30] which measure optical signatures of chemical binding, cantilever technology has the capacity to resolve forces at the level of individual hydrogen bonds, making it uniquely suited to provide important insight into force transduction mechanisms, such as cell wall strain in response to antibiotic binding. Moreover, in contrast to direct current or low-frequency signals, which cannot probe beyond electrical double layers formed by screening salts, mechanical signaling is sensitive to ligands even when they are located at distance of ~1 nm or more from the sensor surface (Fig. 1d). Measurements were performed using cantilevers functionalized with self-assembled monolayers (SAM) of VSR, VRR or reference polyethylene glycol (PEG) (see methods & materials, Supplementary Information). The specificity of mechanical signaling was achieved by performing measurements in differential mode, where the bending response of the reference PEG-coated cantilevers, (known to reduce nonspecific drug adsorption[8][14][34]) was subtracted from VSR- and VRR-coated cantilever signals (see cantilever measurement procedure, method section).
(§2) Thus far, we have discussed the impact of near-membrane layer on the association kinetics, mechanical force transduction, specificity of molecular recognition and microbial susceptibility. To gain mechanistic insight (Fig. 7a,b), we averaged measurements for each drug-target interaction over four separate chips and the results are summarized in Fig. 7c,d. […] The mechanical signaling response follows an s-shaped curve undergoing its steepest rise at N ~1/Ksurf before reaching a plateau when the binding sites are fully occupied (Fig. 7c,d). To calculate Ksurf, we used equation (2)[14], based on the conventional Hill adsorption model.
(§3) Here, Ksurf is raised to the power n to ensure that it maintains the dimension of concentration as n varies. Setting n = 1 yields the Langmuir isotherm where the reactions occur independently, while n > 1 corresponds to positive co-operative polyvalent interactions and n < 1 is a measure of negative co-operativity. In Fig. 7c,d, we find that the mechanical response at VSR levels off at 50 μM concentration for all antibiotics. In contrast, for the drug-resistant VRR a concentration of more than 1000 μM of Van, Rist or CE was required to reach indistinguishable maximum signals. The outcome of the fit using three parameters (n, Ksurf and σmax) is summarized in Supplementary Fig. 2. The calculated Ksurf for Ori binding to VSR is 40 ± 10 nM, which is 25 times stronger than for Van where Ksurf is 1.0 ± 0.3 μM. The Ksurf of Ori against VRR is 70 ± 10 nM, an astonishing 11,000 times stronger than for Van where Ksurf is 800 ± 300 μM. As a further measurement control and to confirm the accuracy of surface binding affinity, we used a commercially available SPR method (Fig. 7e,f and Supplementary SPR sensor chip functionalization procedure), where the detection of ligands is at a single planar metal surface.
(§4) The modified cantilever chip was mounted in a sealed liquid cell. The alignment of each light source onto the free end of each cantilever was confirmed by heating liquid chamber to 1 °C rise. […]

Assay [3] relates to vancomycin-susceptible receptor (VSR). Briefly: Cantilever surface stress assay, antibiotic binding to surface-bound VSR. The settings on record: for mechanical response (in words): 3 μM drug against VSR; for Kd: VSR on cantilever, fit of equation (2); for maximum stress data, Mean / Mean difference of stress, VSR versus VRR: 4 chips; for maximum stress data, Mean: one-way ANOVA table S5; for mechanical force (F = kΔz): against VSR on the cantilever, Fig. 6b (10 μM); for Mean difference of stress, VSR versus VRR: independent samples t-test, table S6; for mechanical response, free end deflection: Van 1000 μM against VSR.
Description: as §1, §2, §3, §4

In assay [4] the test system is methicillin-susceptible Staphylococcus aureus (MSSA) ATCC 29213. Briefly: MIC by broth microdilution (CLSI M07-A8), with PS80. In kind it is cell-based. The method, then:
Determination of MIC values to methicillin-susceptible Staphylococcus aureus (MSSA).
Minimum Inhibitory Concentration (MIC) is defined as the lowest concentration of antibacterial agent required to inhibit growth of a microorganism after incubation. The antibiotics vancomycin (Van) and ristomycin (Rist) were obtained from Sigma-Aldrich while chloroeremomycin (CE) and oritavancin (Ori) were obtained from the Medicine Company Inc., U.S.A. To prepare antibiotic stock solutions for MICs assay, 5 mg/ml of each drug was dissolved in water containing an appropriate volume of 0.002% polysorbate-80 or PS80 obtained from Sigma-Aldrich which corresponds to 20 µM to eliminate nonspecific interactions of drugs to surfaces particularly for Ori which is known to bind to glass and plastics13. Microbiological broth with PS80 maintained at 20 µM was used in the drug dilution steps until the required final (assay) concentration. Diluted concentrations of each drug were assayed by adding an inoculum of methicillin-susceptible Staphylococcus aureus (MSSA) ATCC 29213 cells and the MIC determined by broth microdilution according to Clinical Laboratory Standards Institute (CLSI) methodology M07-A8 (CLSI 2009a)14. The results as shown in Supplementary Table S2 for each antibiotic against clinical isolate of MSSA ATCC 29213 strains conducted in the presence of […]
PS80 are within the quality control ranges defined in the guideline15. […]

In assay [5] the target is VRR in solution. The settings on record: ref. 1 (Van), ref. 6 (Rist), ref. 8 (CE), ref. 2 (Ori), supplementary references, read-out: Ksurf Solution; cited from earlier work.
For assay [6] the following is noted: ligand-ligand dissociation constant in solution; ref. 2 (Van, CE, Ori), ref. 5 (Rist), supplementary references; read-out: K1 Solution (complex aggregation constant); cited from earlier work.
Assay [7] addresses VSR (Ac-VSR) in solution. The settings on record: cited from earlier work.
The mark [8] stands for this setting: VRR on cantilever, pH 7.4 sodium phosphate buffer, read-out: Ksurf Cantilever (surface equilibrium dissociation constant).
Setting [9] is: pH 7.4 sodium phosphate buffer, read-out: Ksurf Cantilever (surface equilibrium dissociation constant).
[10] abbreviates: MSSA ATCC 29213, with PS80, converted from mg/l.
Where [11] appears, read: VSR in solution, ref. 1 (Van, Rist), ref. 7 (CE), ref. 2 (Ori), supplementary references, read-out: Ksurf Solution.
Setting [12] is: solution, read-out: binding affinity against Ac-VSR.

Converted amounts (≈) assume the structure as drawn. “And” between values parts separate entries of the source, which are not always exact repeats. Equal values may be shown once. Read-outs that look alike come from different tables or passages of the source.

Regarding `CN[C@H](CC(C)C)C(=O)N[C@H]1C(=O)N[C@@H](CC(N)=O)C(=O)N[C@H]2C(=O)N[C@H]3C(=O)N[C@H](C(=O)N[C@H](C(=O)O)c4cc(O)cc(O)c4-c4cc3ccc4O)[C@H](O[C@H]3C[C@](C)(N)[C@@H](O)[C@H](C)O3)c3ccc(c(Cl)c3)Oc3cc2cc(c3O[C@@H]2O[C@H](CO)[C@@H](O)[C@H](O)[C@H]2O[C@H]2C[C@](C)(NCc3ccc(-c4ccc(Cl)cc4)cc3)[C@@H](O)[C@H](C)O2)Oc2ccc(cc2Cl)[C@H]1O` [Ori, oritavancin], the “MIC VRE” value in assay [1] is 0.25 to 2 µg/mL. Also, the “mechanical response (in words)” value in assay [2] and in assay [3] was “significantly large mechanical response” throughout. Moreover, the compressive surface stress in assay [2] is ~ 23 mNm^−1. Also, the Kd was 0.07 µM in assay [2] (VRR (drug-resistant target) on cantilever, read-out: Ksurf (cantilever)); 0.07 ± 0.01 µM in assay [2] (setting [8]); 0.04 ± 0.01 µM in assay [3] (setting [9]); 0.04 ± 0.01 µM in assay [3] (read-out: Ksurf (cantilever)); 4200 µM in assay [5]; 1.6 µM in assay [6]. For the same compound, the results for the Kd in assay [7] (setting [11]) and in assay [7] (setting [12]) were 3.8 µM and roughly 1 µM, respectively. Further, the “maximum stress data, Mean” value in assay [2] (VRR) was determined as 20.6; in assay [3] (VSR), 33.8. The “Ksurf of Ori against VRR, times stronger than for Van” value in assay [2] (ratio of cantilever Ksurf, VRR) was 11,000 times. Besides, in assay [2] (σeq = 23 mNm^−1, n ~10^11 receptor molecules per cantilever), the “deleterious force sensitivity s = σeq/n” value was ~ 20 fNm^−1. The “mechanical force (F = kΔz)” value in assay [3] is reported as ~ 3.6 nN. Moreover, the “Mean difference of stress, VSR versus VRR” value in assay [3] was determined as 13.2. Moreover, the “Ksurf of Ori against VSR, times stronger than for Van” value in assay [3] (ratio of cantilever Ksurf, VSR) was determined as 25 times. Further, the minimum inhibitory concentration (MIC) (commonly the least concentration at which growth counts as inhibited) was 0.03 µM (≈ 0.0538 µg/mL) in assay [4] (setting [10]); 0.06 µg/mL and 0.03 µM in assay [4] (Staphylococcus aureus).
`CN[C@H](CC(C)C)C(=O)N[C@H]1C(=O)N[C@@H](CC(N)=O)C(=O)N[C@H]2C(=O)N[C@H]3C(=O)N[C@H](C(=O)N[C@H](C(=O)O)c4cc(O)cc(O)c4-c4cc3ccc4O)[C@H](O)c3ccc(c(Cl)c3)Oc3cc2cc(c3O[C@@H]2O[C@H](CO)[C@@H](O)[C@H](O)[C@H]2O[C@H]2C[C@](C)(N)[C@H](O)[C@H](C)O2)Oc2ccc(cc2Cl)[C@H]1O` [Van, vancomycin]: in assay [1], the “MIC VRE” value is 512 µg/mL (≈ 353 µM). Also, the “mechanical response (in words)” value is recorded as “no effect” in assay [2] and “reduced overall stress transduction” in assay [3]. The compressive surface stress in assay [2] is recorded as ~ 0.4 mNm^−1. Also, the “concentration required to reach indistinguishable maximum signals” value in assay [2] (VRR) was “more than 1000 μM”. The Kd in assay [2] (setting [8]) was 800 µM; in assay [3] (setting [9]), 1 ± 0.3 µM; in assay [5] it was 2400 µM; in assay [6], 20000 µM; in assay [7] (setting [11]), 1 µM; in assay [7] (setting [12]), roughly 1 µM. Besides, the “maximum stress data, Mean” value in assay [2] (VRR) amounted to 7.4; in assay [3] (VSR), 33.5. For the same compound, the “mechanical response, free end deflection” value in assay [3] (near-membrane layer thickness ~1 nm) was ~ 220 nm; in assay [3] (near-membrane layer thickness ~50 nm), ~ 150 nm. Besides, the “mechanical force (F = kΔz)” value in assay [3] is listed as ~ 3 nN. Also, the “Mean difference of stress, VSR versus VRR” value in assay [3] amounted to 26.1. Moreover, the MIC in assay [4] (setting [10]) was 0.67 µM (≈ 0.971 µg/mL); in assay [4] (Staphylococcus aureus) it was 1 µg/mL and 0.67 µM.

Source of the values: publication PMC5290737, “Surface mediated cooperative interactions of drugs enhance mechanical forces for antibiotic action” (Scientific Reports, 2017).
